≈ marks a conversion by molar mass, not a printed value. Each block holds one compound with its values, some of them ahead of it.
Assays:
Androgen receptor = molecular target: T1, Androgen receptor (Homo sapiens, UniProt P10275); experiment: Antagonist activity at androgen receptor (unknown origin)
T1 sequence (P10275 whole entry): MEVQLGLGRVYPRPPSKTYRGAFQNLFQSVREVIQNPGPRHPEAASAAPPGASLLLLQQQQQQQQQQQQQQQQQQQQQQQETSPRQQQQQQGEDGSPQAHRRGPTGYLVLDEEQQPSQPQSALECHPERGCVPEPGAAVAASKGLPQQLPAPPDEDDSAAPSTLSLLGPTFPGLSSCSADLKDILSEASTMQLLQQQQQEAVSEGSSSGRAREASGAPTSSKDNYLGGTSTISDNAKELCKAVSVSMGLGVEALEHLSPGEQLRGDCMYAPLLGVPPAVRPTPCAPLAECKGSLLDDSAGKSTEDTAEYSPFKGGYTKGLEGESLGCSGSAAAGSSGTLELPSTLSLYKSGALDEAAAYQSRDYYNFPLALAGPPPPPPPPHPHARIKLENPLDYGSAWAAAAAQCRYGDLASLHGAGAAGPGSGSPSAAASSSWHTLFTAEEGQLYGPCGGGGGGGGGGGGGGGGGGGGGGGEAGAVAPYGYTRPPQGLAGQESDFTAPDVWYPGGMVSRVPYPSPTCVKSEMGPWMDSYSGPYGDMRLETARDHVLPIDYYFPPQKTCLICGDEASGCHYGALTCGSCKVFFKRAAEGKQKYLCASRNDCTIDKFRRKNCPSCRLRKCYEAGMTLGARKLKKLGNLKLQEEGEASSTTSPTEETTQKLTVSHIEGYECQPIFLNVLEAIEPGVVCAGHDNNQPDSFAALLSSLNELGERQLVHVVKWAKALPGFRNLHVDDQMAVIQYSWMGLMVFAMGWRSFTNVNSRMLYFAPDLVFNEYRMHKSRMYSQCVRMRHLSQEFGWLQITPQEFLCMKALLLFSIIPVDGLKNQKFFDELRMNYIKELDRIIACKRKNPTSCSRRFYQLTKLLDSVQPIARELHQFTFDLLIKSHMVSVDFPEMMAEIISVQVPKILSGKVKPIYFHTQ

[1] = Inhibition of soybean 15-LOX; design: species or system Glycine max
[2] = molecular target: T2, Prostaglandin G/H synthase 1 (Ovis aries, UniProt P05979); experiment: Inhibition of ovine COX-1
T2 sequence (P05979 whole entry): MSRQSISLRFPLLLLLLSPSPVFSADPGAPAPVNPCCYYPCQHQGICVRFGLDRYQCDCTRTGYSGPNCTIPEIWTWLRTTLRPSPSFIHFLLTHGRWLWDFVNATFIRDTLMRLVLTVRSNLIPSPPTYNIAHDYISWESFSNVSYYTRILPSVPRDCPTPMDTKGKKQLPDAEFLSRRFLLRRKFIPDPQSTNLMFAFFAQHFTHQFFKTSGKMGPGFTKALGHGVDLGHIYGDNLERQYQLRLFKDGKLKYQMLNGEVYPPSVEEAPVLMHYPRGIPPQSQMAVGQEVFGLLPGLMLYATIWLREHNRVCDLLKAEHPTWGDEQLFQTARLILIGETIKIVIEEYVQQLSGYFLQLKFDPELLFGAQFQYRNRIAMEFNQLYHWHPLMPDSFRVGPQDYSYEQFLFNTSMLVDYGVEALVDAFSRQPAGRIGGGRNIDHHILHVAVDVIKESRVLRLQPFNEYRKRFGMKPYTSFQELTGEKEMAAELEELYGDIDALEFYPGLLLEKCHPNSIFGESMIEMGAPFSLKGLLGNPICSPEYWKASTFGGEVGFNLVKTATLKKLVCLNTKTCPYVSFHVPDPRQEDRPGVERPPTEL

Salmonella enterica = experiment: Antibacterial activity against Salmonella enterica assessed as zone of inhibition; type: functional
Escherichia coli [3] = experiment: Antibacterial activity against Escherichia coli assessed as zone of inhibition; type: functional
Staphylococcus aureus [4] = experiment: Antibacterial activity against Staphylococcus aureus assessed as zone of inhibition; type: functional
Bacillus subtilis [5] = experiment: Antibacterial activity against Bacillus subtilis assessed as zone of inhibition; type: functional
Candida albicans = experiment: Antifungal activity against Candida albicans assessed as zone of inhibition; type: functional
Aspergillus niger [6] = experiment: Antifungal activity against Aspergillus niger assessed as zone of inhibition; type: functional
MCF7 = experiment: Cytotoxicity against human MCF7 cells by SRB assay; type: functional, cell-based
CHO-K1 = experiment: Cytotoxicity against CHO-K1 cells by MTT assay; type: toxicity, cell-based, Cricetulus griseus; design: concentration or dose not given beside the values; conditions: chinese hamster
Fusarium verticillioides = experiment: Antifungal activity against Fusarium moniliforme by dry weight method; type: functional
Aspergillus niger [7] = experiment: Antifungal activity against Aspergillus niger by dry weight method; type: functional
Aspergillus flavus = experiment: Antifungal activity against Aspergillus flavus by dry weight method; type: functional; design: unit not given beside the values
Staphylococcus aureus [8] = experiment: Antibacterial activity against Staphylococcus aureus; type: functional
Bacillus subtilis [9] = experiment: Antibacterial activity against Bacillus subtilis; type: functional
Escherichia coli [10] = experiment: Antibacterial activity against Escherichia coli; type: functional
Pseudomonas aeruginosa = experiment: Antibacterial activity against Pseudomonas aeruginosa; type: functional
Rattus norvegicus = experiment: Analgesic activity in Sprague-Dawley rat at 15 mg/kg after 2 hrs by hot plate test; type: functional

- IC50 (Androgen receptor): 214 µM
Compound: CC1(C2CC(C(F)(F)F)n3nc(C(=O)O)cc3N2)CC1 (stereo unspecified)

- IC50 [1]: 27.3 µM
- IC50 [2]: 10.2 µM
Compound: COc1ccnc(Nc2nn3c(SC)c(C#N)c(N)nc3c2C#N)c1

Compound: CC1(C)S[C@@H]2[C@H](NC(=O)[C@H](N)c3ccccc3)C(=O)N2[C@H]1C(=O)O [AMPICILLIN]
- inhibition zone (IZ) (Salmonella enterica): 23 mm
- inhibition zone (IZ) (Escherichia coli [3]): 25 mm
- inhibition zone (IZ) (Staphylococcus aureus [4]): 21 mm
- inhibition zone (IZ) (Bacillus subtilis [5]): 26 mm

- IC50 (Androgen receptor): 487 µM
Compound: O=C(O)c1nn2c(c1Cl)NC(c1ccccc1)CC2C(F)(F)F (stereo unspecified)

- IC50 (Androgen receptor): 23.4 µM
Compound: COc1ccc(C2CC(C(F)(F)F)n3nc(-c4ccc(C(=O)O)cc4)cc3N2)cc1OC (stereo unspecified)

Compound: O=C(Nc1ccccc1)c1cnn2c(-c3ccncc3)ccnc12
- inhibition zone (IZ) (Salmonella enterica): 23 mm
- inhibition zone (IZ) (Escherichia coli [3]): 12 mm

Compound: COC1=CC(=O)C[C@@H](C)[C@]12Oc1c(Cl)c(OC)cc(OC)c1C2=O [GRISEOFULVIN]
- inhibition zone (IZ) (Candida albicans): 16.8 mm

Compound: COc1ccc(Nc2nn3c(N)c(C#N)c(-c4cccc(Cl)c4)nc3c2C(=O)Nc2ccc(Cl)cc2)cc1
- inhibition zone (IZ) (Aspergillus niger [6]): 15 mm

Compound: CC/C(=C(\c1ccccc1)c1ccc(OCCN(C)C)cc1)c1ccccc1 [TAMOXIFEN]
- IC50 (MCF7): 8.5 µg/mL (≈ 22.9 µM)

Compound: Cc1c(NC(=O)c2cnn3c(N)c(-c4ccccc4)cnc23)c(=O)n(-c2ccccc2)n1C
- Activity (CHO-K1): 45.75%

Compound: CSc1nn2c(-c3ccccc3)c(C#N)c(=O)[nH]c2c1-c1nc2ccccc2n1C
- Activity (Fusarium verticillioides): 0.16
- Activity (Aspergillus niger [7]): 0.43
- Activity (Aspergillus flavus): 0.33

- MIC (Staphylococcus aureus [8]): 7.81 µg/mL (≈ 21.7 µM)
- MIC (Bacillus subtilis [9]): 3.9 µg/mL (≈ 10.9 µM)
- MIC (Escherichia coli [10]): 15.6 µg/mL (≈ 43.5 µM)
- MIC (Pseudomonas aeruginosa): 7.81 µg/mL (≈ 21.7 µM)
Compound: COc1ccc(Nc2nn3c(-c4ccccc4)ccnc3c2C(N)=O)cc1

- MIC (Staphylococcus aureus [8]): 7.81 µg/mL (≈ 20.9 µM)
- MIC (Bacillus subtilis [9]): 3.9 µg/mL (≈ 10.4 µM)
- MIC (Escherichia coli [10]): 15.6 µg/mL (≈ 41.8 µM)
- MIC (Pseudomonas aeruginosa): 7.81 µg/mL (≈ 20.9 µM)
Compound: COc1ccc(Nc2nn3c(-c4ccc(C)cc4)ccnc3c2C(N)=O)cc1

Compound: O=C(Nc1ccccc1)c1cnn2ccc(-c3ccccn3)nc12
- inhibition zone (IZ) (Salmonella enterica): 20 mm

Compound: O=C(O)Cc1ccccc1Nc1c(Cl)cccc1Cl [DICLOFENAC]
- Activity (Rattus norvegicus): 84%

Compound: CC(=O)c1cnc2c(C(=O)Nc3ccccc3)cnn2c1C
- inhibition zone (IZ) (Salmonella enterica): 16 mm

Compound: O=C(Nc1ccccc1)c1cnn2c(-c3ccccn3)ccnc12
- inhibition zone (IZ) (Salmonella enterica): 11 mm

Compound: COc1ccc(Nc2nn3c(N)c(C#N)c(-c4cccc(Cl)c4)nc3c2C(=O)Nc2ccccc2)cc1
- inhibition zone (IZ) (Aspergillus niger [6]): 15 mm

- IC50 (Androgen receptor): 45.8 µM
Compound: Cc1ccc(C2CC(C(F)(F)F)n3nc(C(N)=O)cc3N2)cc1 (stereo unspecified)

- MIC (Staphylococcus aureus [8]): 7.81 µg/mL (≈ 22.7 µM)
- MIC (Bacillus subtilis [9]): 3.9 µg/mL (≈ 11.4 µM)
- MIC (Escherichia coli [10]): 15.6 µg/mL (≈ 45.5 µM)
- MIC (Pseudomonas aeruginosa): 7.81 µg/mL (≈ 22.7 µM)
Compound: Cc1ccc(-c2ccnc3c(C(N)=O)c(Nc4ccccc4)nn23)cc1
- inhibition zone (IZ) (Bacillus subtilis [5]): 9 mm

- IC50 [1]: 8.5 µM
Compound: CC(Cc1ccc(O)c(O)c1)C(C)Cc1ccc(O)c(O)c1 (stereo unspecified) [NORDIHYDROGUAIARETIC ACID]

Compound: COc1ccc(Nc2nn3c(N)c(C#N)c(-c4cc(OC)ccc4OC)nc3c2C(=O)Nc2ccccc2)cc1
- inhibition zone (IZ) (Escherichia coli [3]): 16 mm
- inhibition zone (IZ) (Aspergillus niger [6]): 15 mm
- inhibition zone (IZ) (Bacillus subtilis [5]): 20 mm
